Calls of active or inactive are those of the source. No stated cut-off is given here; in the data, actives have a measured AC50 and inactives only a lower limit.
Target: T1, Replicative DNA helicase DnaB (Mycobacterium tuberculosis, UniProt P9WMR3)
T1 sequence (P9WMR3 whole entry): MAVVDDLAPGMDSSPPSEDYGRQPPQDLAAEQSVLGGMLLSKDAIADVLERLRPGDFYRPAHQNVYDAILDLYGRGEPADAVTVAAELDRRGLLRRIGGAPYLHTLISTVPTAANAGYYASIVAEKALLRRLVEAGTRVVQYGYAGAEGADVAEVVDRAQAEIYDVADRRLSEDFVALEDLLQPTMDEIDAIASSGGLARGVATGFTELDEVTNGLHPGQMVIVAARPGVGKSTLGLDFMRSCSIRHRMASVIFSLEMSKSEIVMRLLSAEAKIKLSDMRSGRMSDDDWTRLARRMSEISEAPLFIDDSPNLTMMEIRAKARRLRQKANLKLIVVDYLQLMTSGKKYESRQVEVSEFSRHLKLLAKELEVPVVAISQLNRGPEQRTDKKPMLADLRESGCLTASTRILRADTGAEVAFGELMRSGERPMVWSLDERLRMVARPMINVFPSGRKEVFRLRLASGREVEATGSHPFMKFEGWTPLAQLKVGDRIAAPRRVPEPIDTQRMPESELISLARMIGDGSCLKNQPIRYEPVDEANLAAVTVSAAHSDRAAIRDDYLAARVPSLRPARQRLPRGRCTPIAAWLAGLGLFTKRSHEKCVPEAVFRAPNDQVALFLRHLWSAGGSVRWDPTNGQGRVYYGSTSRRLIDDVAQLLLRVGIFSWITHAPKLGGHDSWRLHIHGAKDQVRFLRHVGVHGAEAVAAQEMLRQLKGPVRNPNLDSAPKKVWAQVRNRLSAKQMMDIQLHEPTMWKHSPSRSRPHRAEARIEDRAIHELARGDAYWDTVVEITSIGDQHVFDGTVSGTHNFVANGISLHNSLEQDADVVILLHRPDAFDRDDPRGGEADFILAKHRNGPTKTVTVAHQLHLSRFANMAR
Assay: DnaB intein splicing inhibitors, dose response, biochemical, cell-free fluorescence (AID 449749)
Assay type: functional

SMILES: O=C(NN=c1c(=O)c2ccccc2c1=O)c1ccccc1
- AC50: 3.42 µM (active)
